Reference: publication PMC8156151 (The European Respiratory Journal, 2021)
Where two headings read alike, the source gives them in different places.

What was measured:
[1] = molecular target: Gal-3 (Homo sapiens, UniProt P17931); details: for Galectin-3 (BAL) raw data, Mean (SD): Day 14
Method: (§1) All patients, investigators, sites and study sponsor personnel were blinded to the study group assignments throughout the study. Patients underwent study-specific assessments on days 2, 3, 7, 14 and 15, and a post-study assessment was carried out 26–30 days after the last day of the study period. Assessments included vital signs (supine blood pressure, pulse, oxygen saturation, oral temperature and respiratory rate), spirometry, 12-lead ECG, physical examination, laboratory safety screen (haematology, biochemistry, urinalysis and urinary drugs of abuse screen) and blood sampling for PK measurements. All adverse events and concomitant medications were recorded from the time of the screening visit until the post-study follow-up visit. BAL was performed at day −1 (24 h before the first dose) and at day 14 (2 h after the last dose). The BAL procedure was performed as per international guidelines. Briefly, 240 mL of 0.9% saline at room temperature was instilled in 40 mL aliquots into the right middle lobe and aspirated by suction after each aliquot.
(§2) BAL cells were separated from fluid by centrifugation, and cells were collected, stained with antibodies (supplementary material) and then fixed before analysis using a LSR Fortessa flow cytometer (Becton Dickinson, Franklin Lakes, NJ, USA). Data were analysed using FlowJo software (Tree Star, Ashland, OR, USA). Macrophages were identified as having high side scatter properties and human leukocyte antigen-DR positivity. Gal-3 expression (mean fluorescence intensity) was determined from the macrophage gate (supplementary figures S1 and S2). […] Samples were analysed by magnetic Luminex assay (R&D Systems, Minneapolis, MN, USA) or ELISA.
(§3) For part 2 of the study, placebos were combined from the three dose-specific cohorts into a pooled control group (n=9). For alveolar macrophage Gal-3 expression and the plasma biomarkers, ANCOVA was performed for percentage of baseline ((day 14/day 1)×100). The ANCOVA model included effects for treatment group and baseline (day 1) value. […] An additional analysis including dose as a continuous covariate was also performed. The Pearson correlation coefficient (r) and associated p-value were calculated for percentage of baseline and day 14 values between plasma biomarkers and alveolar macrophage Gal-3 expression. […] The analysis is exploratory and there was no pre-planned adjustment for multiple testing; the study was not powered for this. Alveolar macrophage Gal-3 expression was considered the primary exploratory analysis with the pre-selected biomarkers secondary. A Bonferroni correction for multiple testing of the secondary end-points comparing the 10 mg group with placebo gives a critical value of 0.0063. Data are presented as the difference in least square means with 95% confidence interval and p-value unless otherwise stated. All analyses were performed using SAS version 9.4 (SAS Institute, Cary, NC, USA).
BAL cells were separated from fluid by centrifugation and BAL cells were collected, stained with antibodies then fixed before analysis using a LSRFortessa™ flow cytometer (Becton Dickinson, NJ, USA). Data were analysed using FlowJo software (Becton Dickinson, NJ, USA). After exclusion of doublets and debris a sequential gating strategy was employed to identify cell populations based on surface marker expression. The antibodies used were Gal-3-FITC, CD19-PE, HLA-DR PEcy7, CD14-APC, CD16-pacific-blue, CD11b perCPcy5.5, […]
Biolegend except Gal-3-FITC which was from Cedarlane. Macrophages were identified as having high side scatter properties and HLA-DR positivity. Gal-3 expression (mean fluorescence intensity, MFI) was determined from the macrophage gate. Macrophage subsets were classed as M1, M2a and M2c based on the relative expression of CD206 and CD163 as […]
ve gate the relative % of neutrophils (CD19-/CD16+), B cells (CD19+), natural killer (NK) cells (CD56+), NK T-cells (NKT) cells (CD56+/CD3+), CD4 T cells (CD3+/CD4+) and CD8 T cells

[2] = tested on: PTX3; experiment: Plasma biomarker PTX3; format: in vivo, human; details: for Pentraxin-3 (PTX3) raw data, Mean (SD) / PTX3 least square means % baseline±SEM: IPF patients
Method: as §1, §2
as §3, with “USA). […]” for “USA).”

[3] = tested on: IL-13; experiment: Plasma biomarker IL-13; format: in vivo, human; details: for IL-13 raw data, Mean (SD) / IL-13 least square means % baseline±SEM: IPF patients
Method: as §1, §2
as §3, with “USA). […]” for “USA).”

[4] = tested on: SP-D; experiment: Plasma biomarker SP-D; format: in vivo, human; details: for SP-D raw data, Mean (SD) / SP-D least square means % baseline±SEM: IPF patients
Method: as §1, §2
as §3, with “USA). […]” for “USA).”

Gal-3, sequence (P17931 whole entry): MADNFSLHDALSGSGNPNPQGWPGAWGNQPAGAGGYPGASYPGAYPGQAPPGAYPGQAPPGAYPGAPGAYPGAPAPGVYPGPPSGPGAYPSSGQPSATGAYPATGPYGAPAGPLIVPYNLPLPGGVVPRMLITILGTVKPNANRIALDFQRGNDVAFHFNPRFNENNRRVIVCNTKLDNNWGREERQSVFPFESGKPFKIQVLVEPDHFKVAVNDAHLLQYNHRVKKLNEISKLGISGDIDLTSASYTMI

OC[C@H]1O[C@@H](S[C@@H]2O[C@H](CO)[C@H](O)[C@H](n3cc(-c4cccc(F)c4)nn3)[C@H]2O)[C@H](O)[C@@H](n2cc(-c3cccc(F)c3)nn2)[C@H]1O [TD139]
Gal-3 expression on BAL macrophages, percentage of baseline at day 14, difference compared with placebo ([1]; 3 mg dose group): −38.66% | Gal-3 expression on BAL macrophages, percentage of baseline at day 14, difference compared with placebo ([1]; 10 mg dose group): −44.63% | Gal-3 (BAL) Bayesian probability of effect ([1]; BAL macrophages, 10 mg vs placebo): 99.14 | Gal-3 (BAL) difference in least square means % baseline (95% CI) ([1]; BAL macrophages, 10 mg vs placebo, ANCOVA): −44.6 (−80.4– −8.8) % baseline | Galectin-3 (BAL) raw data, Mean (SD) ([1]; IPF patients, BAL macrophages, 0.3 mg): 7794.8 (2990.48) pg/ml | Galectin-3 (BAL) raw data, Mean (SD) ([1]; IPF patients, BAL macrophages, 3 mg): 8058.6 (3001.05) pg/ml | Galectin-3 (BAL) raw data, Mean (SD) ([1]; IPF patients, BAL macrophages, 10 mg): 5237 (2033.86) pg/ml | Gal-3 (BAL) least square means % baseline±SEM ([1]; IPF patients, BAL macrophages, day 14, 0.3 mg once daily): 67.9±12.1 % baseline | Gal-3 (BAL) least square means % baseline±SEM ([1]; IPF patients, BAL macrophages, day 14, 3 mg once daily): 43.0±11.7 % baseline | Gal-3 (BAL) least square means % baseline±SEM ([1]; IPF patients, BAL macrophages, day 14, 10 mg once daily): 37.1±13.5 % baseline | Galectin-3 (BAL), analysis including dose as a continuous covariate: Estimate ([1]; IPF patients, BAL macrophages, percentage of baseline): -4.19 | correlation between TD139 in AMs and percentage of baseline in surface macrophage Gal-3 (r) ([1]; IPF patients, day 14): −0.63 (95% CI −0.86– −0.18) | Emax (AM surface Gal-3 percentage of baseline) ([1]; fitted maximum effect model vs macrophage TD139 concentration, (95% CI)): 4.5 (−44.0–35.9) | PTX3 difference in least square means % baseline (95% CI) ([2]; 10 mg vs placebo, ANCOVA): −69.6 (−220.3–81.2) % baseline | Pentraxin-3 (PTX3) raw data, Mean (SD) ([2]; Day 14, 0.3 mg): 116.3 (214.7) pg/ml | Pentraxin-3 (PTX3) raw data, Mean (SD) ([2]; Day 14, 3 mg): 629.9 (581.55) pg/ml | Pentraxin-3 (PTX3) raw data, Mean (SD) ([2]; Day 14, 10 mg): 2534.7 (4451.2) pg/ml | PTX3 least square means % baseline±SEM ([2]; day 14, 0.3 mg once daily): 51.8±68.6 % baseline | PTX3 least square means % baseline±SEM ([2]; day 14, 3 mg once daily): 74.2±53.1 % baseline | PTX3 least square means % baseline±SEM ([2]; day 14, 10 mg once daily): 67.0±56.1 % baseline | IL-13 difference in least square means % baseline (95% CI) ([3]; 10 mg vs placebo, ANCOVA): −7.6 (−30.4–15.2) % baseline | IL-13 raw data, Mean (SD) ([3]; Day 14, 0.3 mg): 1219.4 (155.7) pg/ml | IL-13 raw data, Mean (SD) ([3]; Day 14, 3 mg): 1476.6 (140.99) pg/ml | IL-13 raw data, Mean (SD) ([3]; Day 14, 10 mg): 1358.8 (149.34) pg/ml | IL-13 least square means % baseline±SEM ([3]; day 14, 0.3 mg once daily): 87.4±8.8 % baseline | IL-13 least square means % baseline±SEM ([3]; day 14, 3 mg once daily): 100.4±9.5 % baseline | IL-13 least square means % baseline±SEM ([3]; day 14, 10 mg once daily): 97.6±8.8 % baseline | SP-D difference in least square means % baseline (95% CI) ([4]; 10 mg vs placebo, ANCOVA): 4.0 (−41.0–49.1) % baseline | SP-D raw data, Mean (SD) ([4]; Day 14, 0.3 mg): 38987.4 (10734.36) pg/ml | SP-D raw data, Mean (SD) ([4]; Day 14, 3 mg): 91473.6 (43437.58) pg/ml | SP-D raw data, Mean (SD) ([4]; Day 14, 10 mg): 30347 (3552.88) pg/ml | SP-D least square means % baseline±SEM ([4]; day 14, 0.3 mg once daily): 109.6±16.6 % baseline | SP-D least square means % baseline±SEM ([4]; day 14, 3 mg once daily): 111.7±18.2 % baseline | SP-D least square means % baseline±SEM ([4]; day 14, 10 mg once daily): 118.7±17.3 % baseline
